Measured values as given in patent US20230270731A1, “THERAPEUTIC COMPOUNDS AND COMPOSITIONS” (eXIthera Pharmaceuticals, Inc., priority 2019, published 2023).
Converted amounts (≈) assume the structure as drawn. Like-named read-outs stand apart in the source and are kept apart here.

Tests used:
Assay type in all cases: physicochemical
[1] = Equilibrium solubility of Compound 1 in common buffers; conditions: thermodynamic from solid, read-out: Avg. c(Compound 1, FB), equilibrium solubility
Protocol: The equilibrium solubility of Compound 1 was tested in common buffers (Table 2) at a buffer strength of c(buffer)=200 mM. For this, samples of Compound 1 with c(Compound 1, target)=16 mg/mL were prepared in the different buffer solutions (Table 3), mixed by vortexing and inspected for solid residues. For the cases for which no solid residues were observed the solutions were arbitrarily supplemented with additional solid Compound 1. This process was repeated (hourly observation) until a solid residue remained readily observable. The samples were rotated at room temperature for 24 h.
The equilibrium solubility samples were cleared by centrifugation (table top centrifuge, rcf=16,100×g, 10 min). The supernatant was subjected to HPLC analysis and assayed in triplicates for Compound 1 concentration using the HPLC method described in Example 2. The pH of the supernatant was measured (Table 3).

[2] = pH-dependent stability and pH-rate profile, 10-day, 4° C. and 40° C.; conditions: for stability in buffered aqueous solutions: pH=2-8, 0.1 mg/mL, 100 mM buffer, in the dark, 10 days
Protocol: The stability Compound 1 was assessed over a 10-day period at several pH-values pH=2, 3, 4, 5, 6, 7, 8) and at two different temperatures (4° C., 40° C.). Samples of Compound 1 at c(Compound 1)=0.1 mg/mL were prepared in standard buffers (Table 2) at a buffer strength of c(buffer)=100 mM and incubated at either T=4° C. or T=40° C. (exclusion from light during incubation and analysis). The concentration of Compound 1 was assessed in such samples via HPLC analysis at an initial time point (to) and on days 1, 2, 3, 4, 7 and 10 (Δt=day×24 h). The pH was monitored at identical time points during the 10-day period.
Over the 10-day period for both temperatures the pH of the sample solutions (FIG. 2A & FIG. 2B) was monitored and the recovery (R %) of Compound 1 (FIG. 3A & FIG. 3B) was calculated via:
whereas c(Compound 1, theor.)=0.1 mg/mL and c(Compound 1, actual) is determined by HPLC analysis via integration of the Compound 1 parent peak areas.

[3] = Compatibility with infusion vehicles (NS, D5W)
Protocol: The compatibility of the reconstituted Compound 1 formulation with two infusion vehicles, normal saline (NS) and 5% dextrose in water (D5W) was tested after Δt=4 h for two concentration (high/low) at c(Compound 1, target)=0.1 mg/mL and c(Compound 1, target)=1.0 mg/mL and at ambient conditions (Table 10). The average values of % recovery are relative to the dilution of the reconstituted drug product into DI water at to.

[4] = Compatibility with vials and stoppers
Protocol: The compatibility of the reconstituted Compound 1 formulation with sterile manufacturing vials and stoppers (Table 17) was tested for a contact time of Δt=1 h at c(Compound 1, target)=10 mg/mL at ambient conditions. The average values of % recovery are relative to the reconstituted drug product that has not been in contact with the tested materials.

[5] = Compatibility with infusion bags
Protocol: (§1) The compatibility of the reconstituted Compound 1 formulation with two infusion bags (different volumes and material) and two IV lines was tested (Table 13) at c(Compound 1)=0.1 mg/mL. After injection of the reconstituted drug product solution into infusion bags filled with NS, the recovery of Compound 1 was measured i) directly after mixing with the infusion vehicle (to, Table 14) and ii) after Δt=[…] of contact time with the infusion bag (Table 15). Additionally, storage in an infusion bag at ambient temperature and lighting conditions was assessed for Δt=6 h (Table 15). The average values of % recovery are relative to the reconstituted drug product that has not been in contact with the tested materials.

[6] = Compatibility with IV systems
Protocol: as §1
The two IV systems were evaluated for compatibility with the reconstituted drug product solution by filling the IV lines with the diluted (NS) drug product solution and flowing Vflow through (FT)=101 mL through the respective IV system at a flow rate of 5 mL/min. Flow-through samples of Vsample=1 mL were collected i) immediately (VFT=0 mL), ii) after VFT=10 mL and iii) after VFT=[…]. Flow through samples were assayed for recovery of Compound 1 and compared to the infusion solution in the reservoir at t0 (Table 16).

[7] = Liquid injectable formulation: compounding, dilution into infusion vehicles, stability
Protocol: Compounding process for liquid formulations of Compound 1, designed for dilution into infusion vehicles was developed with 3.0 mg/mL of Compound 1 (or 3.13 mg/mL Compound 1 free base equivalent), phosphate buffer solution (PBS), and pH of 6.4-7.2. The compounding process was applied over a wide range of scales (25-500 mL).
The compounding of the drug product required a neutralization step using 0.5N sodium hydroxide solution and buffering with PBS to adjust the pH to values compatible with an IV infusion. The compounding process also required a filtration step, which also served as aseptic processing.
The compounded formulations were diluted into infusion vehicles: normal saline, 5% dextrose in water (D5W), and lactated Ringer's solution (buffered and unbuffered). The dilution into normal saline was carried out at 100-fold and 600-fold dilution.

[8] = Compatibility with infusion bags; conditions: infus. bag1, t0 (Table 15)

C[C@@H](NC(=O)N1C(=O)[C@H](Cc2ccnc(N)c2)[C@H]1C(=O)O)C1CCCCC1 [Compound 1, (2S,3R)-3-[(2-aminopyridin-4-yl)methyl]-1-{[(1R)-1-cyclohexylethyl]carbamoyl}-4-oxoazetidine-2-carboxylic acid]
solubility thermodynamic at 24 h ([1]; citrate buffer, pH 2.72, aqueous buffer, citric acid/sodium 200 mM, pH (Buffer) 3.00, pH (Meas.) 2.72, room temperature 24 h): 5.96 mg/mL (≈ 15.9 mM) | solubility thermodynamic at 24 h ([1]; citrate buffer, pH 3.74, aqueous buffer, citric acid/sodium 200 mM, pH (Buffer) 4.00, pH (Meas.) 3.74, room temperature 24 h): 6.2 mg/mL (≈ 16.6 mM) | solubility thermodynamic at 24 h ([1]; pH 1.29, aqueous buffer, phosphoric acid/sodium phosphate 200 mM, pH (Buffer) 2.00, pH (Meas.) 1.29, room temperature 24 h): 159 mg/mL (≈ 424 mM) | solubility thermodynamic at 24 h ([1]; pH 4.57, aqueous buffer, acetic acid/sodium acetate 200 mM, pH (Buffer) 5.00, pH (Meas.) 4.57, room temperature 24 h): 7.48 mg/mL (≈ 20 mM) | solubility thermodynamic at 24 h ([1]; pH 6.33, aqueous buffer, sodium phosphate 200 mM, pH (Buffer) 7.00, pH (Meas.) 6.33, room temperature 24 h): 12 mg/mL (≈ 32 mM) | solubility thermodynamic at 24 h ([1]; pH 6.67, aqueous buffer, sodium phosphate 200 mM, pH (Buffer) 8.00, pH (Meas.) 6.67, room temperature 24 h): 15.3 mg/mL (≈ 40.9 mM) | precipitation of the drug compound ([2]; 0.1 mg/mL, pH 2-8, 10 days): no precipitation | stability/pH-correlation ([2]; pH 2-8, 10 days): more stable towards a low pH and less stable towards a higher pH | stability in buffered aqueous solutions ([2]; 4° C.): stable | stability in buffered aqueous solutions ([2]; 40° C.): significant degradation | Avg. c(Compound 1, FB, Obs.) ([3]; target 0.1 mg/mL, D5W, t = 4 h, ambient): 0.09 mg/mL | Avg. c(Compound 1, FB, Obs.) ([3]; target 0.1 mg/mL, NS, t = 4 h, ambient): 0.09 mg/mL | Avg. c(Compound 1, FB, Obs.) ([3]; target 0.1 mg/mL, Water, t0): 0.09 mg/mL | Avg. c(Compound 1, FB, Obs.) ([3]; target 0.1 mg/mL, Water, t = 4 h, ambient): 0.09 mg/mL | Avg. c(Compound 1, FB, Obs.) ([3]; target 1.0 mg/mL, D5W, t = 4 h, ambient): 0.92 mg/mL | Avg. c(Compound 1, FB, Obs.) ([3]; target 1.0 mg/mL, NS, t = 4 h, ambient): 0.92 mg/mL | Avg. c(Compound 1, FB, Obs.) ([3]; target 1.0 mg/mL, Water, t0): 0.92 mg/mL | Avg. c(Compound 1, FB, Obs.) ([3]; target 1.0 mg/mL, Water, t = 4 h, ambient): 0.92 mg/mL | Avg. c(Compound 1, FB, Obs.) ([4]; Reconst. Soln., no contact with tested materials): 9.32 mg/mL | Avg. c(Compound 1, FB, Obs.) ([4]; Stopper, t = 1 h, target 10 mg/mL, ambient): 9.28 mg/mL | Avg. c(Compound 1, FB, Obs.) ([4]; Vial, t = 1 h, target 10 mg/mL, ambient): 9.28 mg/mL | Avg. c(Compound 1, FB, Obs.) ([5]; Sample soln. (water), no contact with bags): 0.09 mg/mL | Avg. c(Compound 1, FB, Obs.) ([5]; infus. bag1 (500 mL Viaflo, NS), t0, vs sample soln.): 0.09 mg/mL | Avg. c(Compound 1, FB, Obs.) ([5]; infus. bag1, t = 10 min): 0.09 mg/mL | Avg. c(Compound 1, FB, Obs.) ([5]; infus. bag1, t = 6 h, ambient): 0.09 mg/mL | Avg. c(Compound 1, FB, Obs.) ([5]; infus. bag2 (50 mL Viaflex, NS), t0, vs sample soln.): 0.08 mg/mL | Avg. c(Compound 1, FB, Obs.) ([5]; infus. bag2, t = 10 min): 0.08 mg/mL | Avg. c(Compound 1, FB, Obs.) ([5]; infus. bag2, t = 6 h, ambient): 0.08 mg/mL | adsorption of Compound 1 to infusion bag material ([5]; infusion bag #1 (Viaflo) compared with infusion bag #2 (Viaflex), immediately after contact): lesser extent of Compound 1 adsorption | Avg. c(Compound 1, FB, Obs.) ([6]; IV#1, VFT = 0 mL, 5 mL/min): 0.09 mg/mL | Avg. c(Compound 1, FB, Obs.) ([6]; IV#1, VFT = 10 mL, 5 mL/min): 0.09 mg/mL | Avg. c(Compound 1, FB, Obs.) ([6]; IV#1, VFT = 100 mL, 5 mL/min): 0.09 mg/mL | Avg. c(Compound 1, FB, Obs.) ([6]; IV#2, VFT = 0 mL, 5 mL/min): 0.09 mg/mL | Avg. c(Compound 1, FB, Obs.) ([6]; IV#2, VFT = 10 mL, 5 mL/min): 0.09 mg/mL | Avg. c(Compound 1, FB, Obs.) ([6]; IV#2, VFT = 100 mL, 5 mL/min): 0.09 mg/mL | Avg. c(Compound 1, FB, Obs.) ([6]; infus. bag, t0 (IV#1), reservoir): 0.09 mg/mL | Avg. c(Compound 1, FB, Obs.) ([6]; infus. bag, t0 (IV#2), reservoir): 0.09 mg/mL | pH over time ([7]; diluted into normal saline, 0.03 mg/mL, ambient, 48 hours): constant | purity over time ([7]; diluted into normal saline, 0.03 mg/mL, ambient, over 48 hours): unchanged | time stable at ambient temperature ([7]; formulation diluted into normal saline, 0.03 mg/mL): at least 48 hours | loss of Compound 1 in filtration step of compounding ([7]; liquid formulation 3.0 mg/mL, PBS, pH 6.4-7.2): minimal loss or no loss | nominal degradation ([7]; liquid formulations, 2-8° C., at least one week): < 4% | Avg. c(Compound 1, FB, Obs.) [8]: 0.09 mg/mL
